Test results taken from PubChem BioAssay (NCI).
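Protocol summary: plate cells (96-well), add compound at 5 concentrations, incubate 48 h, interpolate endpoints linearly. Abbreviation: GI50, concentration required for 50% inhibition of growth. TGI denotes the concentration required for complete inhibition of growth.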

Key:
Assay in all cases: NCI tumour cell line growth inhibition, 48 h; in the data active means GI50 below about 0.43 µM; inactive means the rest
SNB-75 CNS = test system: SNB-75 CNS
NCI-H522 lung = test system: NCI-H522 lung
MCF7 breast = test system: MCF7 breast
SNB-78 CNS = test system: SNB-78 CNS
MDA-MB-231 breast = test system: MDA-MB-231 breast
M14 melanoma = test system: M14 melanoma
MDA-MB-435 = test system: MDA-MB-435
DLD-1 colon = test system: DLD-1 colon
MOLT-4 leukemia = test system: MOLT-4 leukemia
HL-60(TB) leukemia = test system: HL-60(TB) leukemia
SW-620 colon = test system: SW-620 colon
UACC-62 melanoma = test system: UACC-62 melanoma
SNB-19 CNS = test system: SNB-19 CNS
DU-145 prostate = test system: DU-145 prostate
RPMI-8226 leukemia = test system: RPMI-8226 leukemia
NCI-H226 lung = test system: NCI-H226 lung
XF 498 CNS = test system: XF 498 CNS
M19-MEL melanoma = test system: M19-MEL melanoma
LXFL 529 NSCLC = test system: LXFL 529 NSCLC
DMS 114 small cell lung = test system: DMS 114 small cell lung
SF-268 CNS = test system: SF-268 CNS
IGROV1 ovarian = test system: IGROV1 ovarian
HCC-2998 colon = test system: HCC-2998 colon
PC-3 prostate = test system: PC-3 prostate
KM12 colon = test system: KM12 colon
HOP-62 NSCLC = test system: HOP-62 NSCLC
LOX IMVI melanoma = test system: LOX IMVI melanoma
UACC-257 melanoma = test system: UACC-257 melanoma
SK-MEL-5 melanoma = test system: SK-MEL-5 melanoma
RXF 393 renal = test system: RXF 393 renal
HT29 colon = test system: HT29 colon
NCI/ADR-RES ovarian = test system: NCI/ADR-RES ovarian
HCT-15 colon = test system: HCT-15 colon
A549 NSCLC = test system: A549 NSCLC
CAKI-1 renal = test system: CAKI-1 renal
OVCAR-8 ovarian = test system: OVCAR-8 ovarian
NCI-H23 lung = test system: NCI-H23 lung
U251 CNS = test system: U251 CNS
HOP-18 NSCLC = test system: HOP-18 NSCLC
SK-OV-3 ovarian = test system: SK-OV-3 ovarian
ACHN renal = test system: ACHN renal
TK-10 renal = test system: TK-10 renal
SF-295 CNS = test system: SF-295 CNS
SF-539 CNS = test system: SF-539 CNS
UO-31 renal = test system: UO-31 renal
SR leukemia = test system: SR leukemia
SK-MEL-2 melanoma = test system: SK-MEL-2 melanoma
DMS 273 small cell lung = test system: DMS 273 small cell lung
HCT-116 colon = test system: HCT-116 colon

O=C1C=CC=C[C@@H]2C(C3OCCO3)CC[C@H]12.[C-]#[O+].[C-]#[O+].[C-]#[O+].[Fe] (some centres not stated)
> 85.1 µM: TGI (HOP-18 NSCLC)
68.1 µM: TGI (MOLT-4 leukemia)
29.4 µM: TGI (LXFL 529 NSCLC)
> 82.4 µM: TGI (RPMI-8226 leukemia)
> 83.5 µM: TGI (SR leukemia)
67 µM: TGI (RXF 393 renal)
45 µM: TGI (DLD-1 colon)
41.5 µM: TGI (HCT-116 colon)
> 65.6 µM: TGI (ACHN renal)
5.66 µM: TGI (LOX IMVI melanoma)
> 78.4 µM: TGI (UO-31 renal)
65.1 µM: TGI (OVCAR-8 ovarian)
> 74.9 µM: TGI (M14 melanoma)
> 95.4 µM: TGI (HCT-15 colon)
78.7 µM: TGI (IGROV1 ovarian)
inactive: GI50 (SNB-75 CNS) > 100 µM | GI50 (NCI-H522 lung) 29 µM | GI50 (MCF7 breast) 37.3 µM | GI50 (SNB-78 CNS) 22.8 µM | GI50 (MDA-MB-231 breast) > 100 µM | GI50 (M14 melanoma) 37.8 µM | GI50 (MDA-MB-435) 31.3 µM | GI50 (DLD-1 colon) 19.8 µM | GI50 (MOLT-4 leukemia) 26.5 µM | GI50 (SW-620 colon) 29.9 µM | GI50 (UACC-62 melanoma) > 59.8 µM | GI50 (SNB-19 CNS) > 100 µM | GI50 (DU-145 prostate) 93.3 µM | GI50 (RPMI-8226 leukemia) 26.8 µM | GI50 (NCI-H226 lung) > 83.5 µM | GI50 (XF 498 CNS) > 100 µM | GI50 (M19-MEL melanoma) 19.9 µM | GI50 (LXFL 529 NSCLC) 15.6 µM | GI50 (DMS 114 small cell lung) 20.1 µM | GI50 (SF-268 CNS) > 60 µM | GI50 (IGROV1 ovarian) 26 µM | GI50 (HCC-2998 colon) > 76.6 µM | GI50 (PC-3 prostate) 98.9 µM | GI50 (KM12 colon) 48 µM | GI50 (HOP-62 NSCLC) > 95.3 µM | GI50 (LOX IMVI melanoma) 1.09 µM | GI50 (UACC-257 melanoma) 98.5 µM | GI50 (SK-MEL-5 melanoma) > 100 µM | GI50 (RXF 393 renal) 23.4 µM | GI50 (HT29 colon) 42.6 µM | GI50 (NCI/ADR-RES ovarian) > 100 µM | GI50 (HCT-15 colon) 55.7 µM | GI50 (A549 NSCLC) > 100 µM | GI50 (CAKI-1 renal) 93.3 µM | GI50 (OVCAR-8 ovarian) 24.8 µM | GI50 (NCI-H23 lung) > 52.8 µM | GI50 (U251 CNS) 44.7 µM | GI50 (HOP-18 NSCLC) > 52.8 µM | GI50 (SK-OV-3 ovarian) > 96 µM | GI50 (ACHN renal) 34.8 µM | GI50 (TK-10 renal) > 100 µM | GI50 (SF-295 CNS) 44.4 µM | GI50 (SF-539 CNS) 44.6 µM | GI50 (UO-31 renal) 42.7 µM | GI50 (SR leukemia) 18.4 µM | GI50 (SK-MEL-2 melanoma) > 71.1 µM | GI50 (DMS 273 small cell lung) 30.6 µM | GI50 (HCT-116 colon) 18.9 µM
> 83.7 µM: TGI (NCI-H23 lung)
37 µM: TGI (M19-MEL melanoma)
> 82.5 µM: TGI (U251 CNS)
66 µM: TGI (SNB-78 CNS)
45.2 µM: TGI (DMS 114 small cell lung)
77.2 µM: TGI (SF-539 CNS)
46 µM: TGI (NCI-H522 lung)
> 100 µM: TGI (SNB-75 CNS) | TGI (MCF7 breast) | TGI (MDA-MB-231 breast) | TGI (MDA-MB-435) | TGI (HL-60(TB) leukemia) | TGI (SW-620 colon) | TGI (UACC-62 melanoma) | TGI (SNB-19 CNS) | TGI (DU-145 prostate) | TGI (NCI-H226 lung) | TGI (XF 498 CNS) | TGI (SF-268 CNS) | TGI (HCC-2998 colon) | TGI (PC-3 prostate) | TGI (KM12 colon) | TGI (HOP-62 NSCLC) | TGI (UACC-257 melanoma) | TGI (SK-MEL-5 melanoma) | TGI (HT29 colon) | TGI (NCI/ADR-RES ovarian) | TGI (A549 NSCLC) | TGI (CAKI-1 renal) | TGI (SK-OV-3 ovarian) | TGI (TK-10 renal) | TGI (SF-295 CNS) | TGI (SK-MEL-2 melanoma) | TGI (DMS 273 small cell lung)
